Calls of active or inactive are those of the source. No cut-off for these calls is given here.
What was measured:
MCF7 = test: Antiproliferative activity against ER-positive human MCF7 cells assessed as reduction in cell growth at 50 ug/ml measured by MTT assay; format: functional; details: read-out: GI
PA-1 = test: Antiproliferative activity against human PA-1 cells assessed as reduction in cell growth at 50 ug/ml measured by MTT assay; format: functional; details: read-out: GI
MDA-MB-231 = test: Antiproliferative activity against ER-negative human MDA-MB-231 cells assessed as reduction in cell growth at 50 ug/ml measured by MTT assay; format: functional; details: read-out: GI
Calvarial osteoblast [1] = test: Induction of osteoblast differentiation in mouse calvarial osteoblasts assessed as increase in ALP activity at 1 pM incubated for 48 hrs by spectrophotometric analysis; format: functional, cell-based
Calvarial osteoblast [2] = test: Induction of osteoblast differentiation in mouse calvarial osteoblasts assessed as increase in ALP activity at 100 pM incubated for 48 hrs by spectrophotometric analysis; format: functional, cell-based
Calvarial osteoblast [3] = test: Induction of osteogenic differentiation in mouse calvarial osteoblasts assessed as increase in Type-1 collagen mRNA expression level at 1 to 100 pM after 24 to 48 hrs by RT-qPCR analysis; format: functional, cell-based; details: dose 1-100 pM, time 24-48 hrs
Calvarial osteoblast [4] = test: Cytotoxicity against mouse calvarial osteoblasts assessed as reduction in cell viability at 0.000001 to 1 uM measured after 48 hrs by MTT assay; format: cell-based; details: dose lower 1e-06 µM, dose upper 1 µM
Calvarial osteoblast [5] = test: Induction of osteogenic differentiation in mouse calvarial osteoblasts assessed as increase in RUNX2 mRNA expression level at 1 to 100 pM after 24 to 48 hrs by RT-qPCR analysis; format: functional, cell-based; details: dose 1-100 pM, time 24-48 hrs
Calvarial osteoblast [6] = test: Induction of osteoblast differentiation in mouse calvarial osteoblasts assessed as increase in bone mineralization at 1 pM incubated for 21 days by alizarin-red S dye based colorimetric analysis; format: functional, cell-based; details: time 21.0 day
Calvarial osteoblast [7] = test: Induction of osteogenic differentiation in mouse calvarial osteoblasts assessed as increase in BMP2 mRNA expression level at 1 to 100 pM after 24 to 48 hrs by RT-qPCR analysis; format: functional, cell-based; details: dose 1-100 pM, time 24-48 hrs

SMILES	inhibition of growth at 50 µg/mL (MCF7) [%]	inhibition of growth at 50 µg/mL (PA-1) [%]	inhibition of growth at 50 µg/mL (MDA-MB-231) [%]	further results
COc1ccc2c(c1)OC(C)(C)C/C2=C1/CC(C)(C)Oc2cc(O)ccc21	25.2	26.6	36.5	–
COc1ccc2c(c1)OC(C)(C)C/C2=C1/CC(C)(C)Oc2cc(OCCCCCC(=O)N3CCCC3)ccc21	25.2	–	–	–
COc1ccc2c(c1)OC(C)(C)C/C2=C1/CC(C)(C)Oc2cc(OCCCC(=O)NCCCCCCNC(=O)OC(C)(C)C)ccc21	–	26.6	36.5	Activity (Calvarial osteoblast [1]): Active
COc1ccc2c(c1)OC(C)(C)C/C2=C1/CC(C)(C)Oc2cc(OCCCCC(=O)NCc3ccccn3)ccc21	25.2	26.6	36.5	–
COc1ccc2c(c1)OC(C)(C)C/C2=C1/CC(C)(C)Oc2cc(OCCCCC(=O)N3CCCCC3)ccc21	25.2	26.6	36.5	–
COc1ccc2c(c1)OC(C)(C)C/C2=C1/CC(C)(C)Oc2cc(OCCCC(=O)N3CCCC3)ccc21	25.2	26.6	36.5	Activity (Calvarial osteoblast [1]): Active
COc1ccc2c(c1)OC(C)(C)C/C2=C1/CC(C)(C)Oc2cc(OCCCC(=O)NCc3ccccn3)ccc21	–	26.6	–	–
COc1ccc2c(c1)OC(C)(C)C/C2=C1/CC(C)(C)Oc2cc(OCCCCC(=O)N3CCCC3)ccc21	25.2	26.6	36.5	–
COc1ccc2c(c1)OC(C)(C)C/C2=C1/CC(C)(C)Oc2cc(OCCCCC(=O)N3CCN(C)CC3)ccc21	25.2	26.6	36.5	–
COc1ccc2c(c1)OC(C)(C)C/C2=C1/CC(C)(C)Oc2cc(OCCCCCC(=O)NCCCCCCNC(=O)OC(C)(C)C)ccc21	25.2	26.6	36.5	Activity (Calvarial osteoblast [2]): Active
COc1ccc2c(c1)OC(C)(C)C/C2=C1/CC(C)(C)Oc2cc(OCCCCCC(=O)N3CCN(C)CC3)ccc21	25.2	26.6	–	–
COc1ccc2c(c1)OC(C)(C)C/C2=C1/CC(C)(C)Oc2cc(OCCCCCC(=O)N3CCCCC3)ccc21	–	26.6	36.5	–
COc1ccc2c(c1)OC(C)(C)C/C2=C1/CC(C)(C)Oc2cc(OCCCCCC(=O)NCc3ccccn3)ccc21	–	–	36.5	–
CNCCCCNC(=O)CCCCCOc1ccc2c(c1)OC(C)(C)C/C2=C1/CC(C)(C)Oc2cc(OC)ccc21	25.2	26.6	36.5	–
COc1ccc2c(c1)OC(C)(C)C/C2=C1/CC(C)(C)Oc2cc(OCCCC(=O)N3CCN(C)CC3)ccc21	25.2	–	–	Activity (Calvarial osteoblast [2]): Active
COc1ccc2c(c1)OC(C)(C)C/C2=C1/CC(C)(C)Oc2cc(OCCCC(=O)N3CCCCC3)ccc21	26.1	68.3	15.9	Activity (Calvarial osteoblast [3]): Active; Activity (Calvarial osteoblast [4]): Non-Toxic; Activity (Calvarial osteoblast [5]): Active; Activity (Calvarial osteoblast [1]): Active; Activity (Calvarial osteoblast [6]): Active; Activity (Calvarial osteoblast [7]): Active
CNCCCCNC(=O)CCCCOc1ccc2c(c1)OC(C)(C)C/C2=C1/CC(C)(C)Oc2cc(OC)ccc21	25.2	–	36.5	Activity (Calvarial osteoblast [1]): Active
CNCCCCNC(=O)CCCOc1ccc2c(c1)OC(C)(C)C/C2=C1/CC(C)(C)Oc2cc(OC)ccc21	–	–	36.5	–
COc1ccc2c(c1)OC(C)(C)C/C2=C1/CC(C)(C)Oc2cc(OC)ccc21	25.2	26.6	36.5	–

— ChEMBL document CHEMBL4808250, “Synthesis and biological evaluation of substituted amide derivatives of C4-ageratochromene dimer analog” (Bioorg Med Chem Lett, 2021)
